Assays:
cPLA2 [1] = biological target: cPLA2 (Homo sapiens, UniProt P47712); settings: 293 T cells transfected with Flag-tagged mutants
Method: (§1) DARTS assay. Drug affinity responsive target stability (DARTS) assay was performed based on previously reported methods^4. In brief, cell lysate was extracted by M-PER™ Mammalian Protein Extraction Reagent (78501, Thermo Fisher), briefly centrifuged, and mixed with drugs or DMSO for 1 hour on a rotator. Pronase (P5147, Sigma-Aldrich) was added in the mixture for 15 minutes at room temperature. Digestion was stopped by 10 minute incubation with protease inhibitor cocktail on ice. Samples were boiled in SDS loading buffer for SDS-PAGE and Western blot.
(§2) Site-directed mutagenesis.
(§3) Construction of plasmids. The construction of cPLA2 mutant plasmids was based on serial C-terminal and N-terminal deletion of the amino acid sequences associated with functional structure. Each plasmid carried a flag tag. The constructions were: full length cPLA2 (1-750), cPLA2 (126-750), cPLA2 (406-750), cPLA2 (1-479), and cPLA2 (1-144).
Target sequence in this assay (P47712 1-479): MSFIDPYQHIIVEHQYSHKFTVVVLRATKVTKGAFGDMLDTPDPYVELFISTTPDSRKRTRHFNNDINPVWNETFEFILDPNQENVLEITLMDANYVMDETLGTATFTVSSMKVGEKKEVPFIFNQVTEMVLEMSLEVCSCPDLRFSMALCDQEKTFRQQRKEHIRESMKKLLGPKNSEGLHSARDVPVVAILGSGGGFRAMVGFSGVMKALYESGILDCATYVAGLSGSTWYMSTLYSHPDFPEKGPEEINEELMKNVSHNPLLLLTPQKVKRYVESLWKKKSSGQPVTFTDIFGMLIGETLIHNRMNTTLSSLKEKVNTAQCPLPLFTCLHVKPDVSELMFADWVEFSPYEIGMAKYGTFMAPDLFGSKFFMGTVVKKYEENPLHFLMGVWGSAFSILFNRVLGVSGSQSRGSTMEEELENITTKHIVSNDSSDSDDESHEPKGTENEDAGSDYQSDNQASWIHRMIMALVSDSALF

cPLA2 [2] = biological target: cPLA2 (Homo sapiens, UniProt P47712); settings: 293 T cells transfected with Flag-tagged mutants; N-terminal C2D and CD1 deletion
Method: as §1, §2, §3
Target sequence in this assay (P47712 126-749): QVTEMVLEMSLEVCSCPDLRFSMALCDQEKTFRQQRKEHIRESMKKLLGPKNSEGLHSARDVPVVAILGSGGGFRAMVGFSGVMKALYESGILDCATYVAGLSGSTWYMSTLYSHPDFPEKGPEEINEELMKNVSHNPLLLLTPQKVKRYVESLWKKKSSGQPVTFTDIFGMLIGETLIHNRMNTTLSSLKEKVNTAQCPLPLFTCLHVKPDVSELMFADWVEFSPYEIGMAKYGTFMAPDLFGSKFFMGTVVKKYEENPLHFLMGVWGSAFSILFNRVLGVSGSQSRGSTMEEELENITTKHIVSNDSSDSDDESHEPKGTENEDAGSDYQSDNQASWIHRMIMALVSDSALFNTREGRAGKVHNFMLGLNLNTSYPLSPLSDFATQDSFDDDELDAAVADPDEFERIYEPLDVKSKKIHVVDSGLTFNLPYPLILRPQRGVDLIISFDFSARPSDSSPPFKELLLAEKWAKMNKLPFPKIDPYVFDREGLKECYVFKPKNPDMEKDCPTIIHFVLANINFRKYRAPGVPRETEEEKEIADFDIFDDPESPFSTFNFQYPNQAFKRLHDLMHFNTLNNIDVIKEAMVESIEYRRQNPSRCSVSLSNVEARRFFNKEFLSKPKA

cPLA2 [3] = biological target: cPLA2 (Homo sapiens, UniProt P47712, S505A); settings: 293 T cells transfected with point mutant plasmid
cPLA2 (Homo sapiens, UniProt P47712, S505A), sequence (P47712 whole entry S505A): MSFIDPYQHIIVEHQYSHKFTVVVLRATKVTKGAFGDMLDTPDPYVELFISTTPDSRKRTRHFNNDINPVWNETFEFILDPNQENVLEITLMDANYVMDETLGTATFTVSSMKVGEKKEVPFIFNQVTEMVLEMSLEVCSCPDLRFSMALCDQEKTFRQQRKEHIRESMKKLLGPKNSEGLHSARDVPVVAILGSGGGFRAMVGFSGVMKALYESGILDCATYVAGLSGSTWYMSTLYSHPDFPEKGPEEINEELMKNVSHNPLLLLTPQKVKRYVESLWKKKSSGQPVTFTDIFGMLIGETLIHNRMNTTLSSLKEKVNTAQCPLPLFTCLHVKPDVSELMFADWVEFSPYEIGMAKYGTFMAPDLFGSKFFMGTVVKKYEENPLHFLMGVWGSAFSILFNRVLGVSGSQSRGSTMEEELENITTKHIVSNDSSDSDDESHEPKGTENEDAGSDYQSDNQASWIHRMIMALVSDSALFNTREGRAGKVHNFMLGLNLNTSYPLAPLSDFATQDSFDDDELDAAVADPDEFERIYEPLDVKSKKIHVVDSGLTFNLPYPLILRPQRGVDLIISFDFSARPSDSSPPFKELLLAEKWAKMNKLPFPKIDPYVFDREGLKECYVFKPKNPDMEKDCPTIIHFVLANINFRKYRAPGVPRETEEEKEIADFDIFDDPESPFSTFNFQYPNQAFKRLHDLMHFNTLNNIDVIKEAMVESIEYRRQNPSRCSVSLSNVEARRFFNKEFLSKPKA
Method: as §1, §2, §3

cPLA2 [4] = settings: series of protease to cell lysate ratios
Method: as §1, §2, §3

[5] = system: TNF-α-activated NF-κB reporter gene; test: NF-κB luciferase reporter in control and cPLA2 knockout Raw264.7 cells; assay type: cell-based
Method: Screening FDA approved drugs in vitro. NF-κB-bla THP-1 cell line (K1662, Invitrogen) was cultured in 96-well plates and FDA approved drugs (10 μM, L1300, Selleckchem) were added and cultured overnight. Next day, cells were incubated with TNF-α (10 ng/ml, PHC3015, Invitrogen) for 6 hours and LiveBLAzer™ FRET-B/G Loading Kit with CCF2-AM (K1095, Invitrogen) was used to detect the β-lactamase activity via SpectraMax i3x system (5025027A Molecular Devices) with excitation wavelength at 409 nm and emission wavelengths at 520 nm or 470 nm. This process was performed in triplicate. Subsequently, the drugs from first screening that could inhibit TNF-α induced NF-κB activity underwent further screening by NF-κB luciferase assay. After transfection with NF-κB luciferase reporter gene and Renilla plasmids for 8 hours, cells were treated with drugs (10 μM) overnight, followed by TNF-α (10 ng/ml) stimulation for 6 hours, then bioluminescence was measured by Dual-Luciferase® Reporter Assay kit (E1910, Promega). The data were analyzed by Graphpad Prism software (GraphPad Software, San Diego, Calif.).
Knock out of cPAL2 by CRISPR-Cas9. Knockout cells were generated in accordance with a previously published protocol. gRNA was inserted into the lentiCRISPR v2 vector. Packaging the inserted vector into lentivirus was completed by co-transfecting the lentiCRISPR v2, VSVG and ΔR6.7 in 293T cells. After packaging, we transfected the virus into RAW264.7 cells over 8 hours. Puromycin (2 μg/ml) was used to select the stably transfected RAW264.7 cells

IκB-α = test: Phosphorylation of IκB-α in vivo (data not shown)
NF-κB p65 = settings: TNF-α 10 ng/mL; FFD 10 μM, TFD 1 μM
cPLA2 [6] = biological target: T1, cPLA2 (Mus musculus, UniProt P47713); test: Western blot of TNF activated phosphorylation of cPLA2 on Ser-505 in BMDMs; assay type: cell-based, mice; set-up: endogenous in cells; host or cells: mouse bone marrow derived macrophages (BMDMs); settings: TNF-α 10 ng/mL; FFD 10 μM
T1 sequence (P47713 1-748): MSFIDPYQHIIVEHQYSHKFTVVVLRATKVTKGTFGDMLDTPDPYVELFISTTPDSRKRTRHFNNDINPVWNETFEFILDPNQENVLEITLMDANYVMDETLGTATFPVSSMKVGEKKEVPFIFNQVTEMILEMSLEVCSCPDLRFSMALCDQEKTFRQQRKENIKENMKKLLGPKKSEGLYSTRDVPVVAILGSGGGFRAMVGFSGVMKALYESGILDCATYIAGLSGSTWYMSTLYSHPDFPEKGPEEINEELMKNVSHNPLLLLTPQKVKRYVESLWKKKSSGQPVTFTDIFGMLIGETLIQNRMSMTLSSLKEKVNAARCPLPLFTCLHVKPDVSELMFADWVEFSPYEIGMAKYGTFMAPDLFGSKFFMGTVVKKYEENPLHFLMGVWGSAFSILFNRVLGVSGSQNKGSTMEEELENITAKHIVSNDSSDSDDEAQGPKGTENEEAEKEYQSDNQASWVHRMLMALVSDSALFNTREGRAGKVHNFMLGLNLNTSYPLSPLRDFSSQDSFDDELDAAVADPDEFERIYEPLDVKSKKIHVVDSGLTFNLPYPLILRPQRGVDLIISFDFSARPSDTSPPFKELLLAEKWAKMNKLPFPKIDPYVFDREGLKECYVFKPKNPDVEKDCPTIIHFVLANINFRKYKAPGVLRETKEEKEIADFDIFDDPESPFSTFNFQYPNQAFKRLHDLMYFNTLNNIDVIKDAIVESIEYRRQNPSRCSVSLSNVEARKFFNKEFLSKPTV
Method: Primary bone marrow derived macrophages (BMDMs) extraction. BMDMs were isolated from C57BL/6 and TNF-tg mice. After mice were sacrificed by cervical dislocation, the tibia and femur were isolated and both ends of the bones were cut to open the medullary cavity. Bone marrow cells were collected by centrifuge at 13000 g for 90 seconds and seeded in 6-well plates. Prior to their use in experiments, M-CSF (10 ng/ml, 576406, Biolegend) was added for 6 days to the BMDM culture medium.
Western blot. After protein samples were prepared, samples were separated by SDS-PAGE and transferred to a nitrocellulose (NC) membrane (162-0115, BIO-RAD) using a wet transfer system. Membrane was blocked in 5% (w/v) non-fat milk in TBST for half an hour at room temperature, followed by incubation with appropriate primary antibody overnight at 4° C. After washing, appropriate secondary antibody was added for 1 hour at room temperature. The bands on the membrane were developed by chemiluminescent (ECL) substrate and visualized by GelDoc system.

- DARTS protective effects on mutants lacking the CD2 domain, cPLA2 (1-479) and cPLA2 (1-144) (cPLA2 [1]): did not show any protective effects
- DARTS protective effects on cPLA2 (126-750) and cPLA2(406-750) (cPLA2 [2]): retained protective effects
- DARTS protective effect on Ser-505 to Ala point mutant of cPLA2 (cPLA2 [3]): lost its protective effect
- TNF-α-induced nuclear translocation and DNA-binding activity of p65 (NF-κB p65): inhibited
- phosphorylation of cPLA2 on Ser-505 (cPLA2 [6]): abolished
SMILES: CC(C)(C(=O)O)c1ccc(C(O)CCCN2CCC(C(O)(c3ccccc3)c3ccccc3)CC2)cc1 (stereo not shown) [fexofenadine]
- protection of cPLA2 from protease (DARTS, Western blot) (cPLA2 [4]): protected
- inhibition of TNF-α-activated NF-κB reporter gene in cPLA2 knockout cells ([5]; cPLA2 knockout cells): lost its inhibition
- anti-TNF/NF-κB activity in cPLA2 knockout cells transfected with cPLA2 S505A ([5]; point mutant Ser-505-Ala): could not rescue
- anti-TNF/NF-κB activity in cPLA2 knockout cells transfected with a cPLA2 expression plasmid ([5]; re-established expression of cPLA2): reinstated
- phosphorylation of NF-κB p65 upstream mediator IκB-α in vivo (IκB-α): inhibited

— patent publication US20200022964A1, “COMPOSITIONS AND METHODS FOR TREATMENT OF INFLAMMATORY AUTOIMMUNE DISEASES” (New York University, priority 2018, published 2020)
